For the assay, the target named is Potassium voltage-gated channel subfamily KQT member 1 (Homo sapiens) (UniProt P51787). The assay can be described thus: PubChem AID 602120. Conditions: KCNQ1-CHO cells, manual whole-cell patch clamp current; at 0.3 µM; stronger effect = higher value. For orientation: The patch-clamp technique gives a direct electrical read-out from membranes.
Sequence of Potassium voltage-gated channel subfamily KQT member 1 (Homo sapiens) (P51787 whole entry, looked up): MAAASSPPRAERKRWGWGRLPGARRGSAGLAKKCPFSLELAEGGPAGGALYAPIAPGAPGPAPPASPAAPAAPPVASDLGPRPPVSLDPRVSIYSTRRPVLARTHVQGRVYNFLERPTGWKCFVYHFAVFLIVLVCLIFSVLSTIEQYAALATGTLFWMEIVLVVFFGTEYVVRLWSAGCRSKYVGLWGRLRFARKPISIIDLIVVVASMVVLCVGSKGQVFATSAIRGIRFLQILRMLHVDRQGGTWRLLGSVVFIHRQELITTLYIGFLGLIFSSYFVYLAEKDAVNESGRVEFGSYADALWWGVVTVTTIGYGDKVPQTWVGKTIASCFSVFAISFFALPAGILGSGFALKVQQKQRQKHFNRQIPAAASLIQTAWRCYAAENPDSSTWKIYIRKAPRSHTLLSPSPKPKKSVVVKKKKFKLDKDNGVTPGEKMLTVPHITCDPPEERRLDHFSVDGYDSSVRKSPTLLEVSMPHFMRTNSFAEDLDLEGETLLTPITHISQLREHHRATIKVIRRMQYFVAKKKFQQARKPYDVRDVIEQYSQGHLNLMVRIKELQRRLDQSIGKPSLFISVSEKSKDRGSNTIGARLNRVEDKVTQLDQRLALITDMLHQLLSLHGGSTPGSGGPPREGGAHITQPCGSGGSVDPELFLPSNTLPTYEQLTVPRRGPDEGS

As to `COc1ccc(-c2csc(NC(=O)[C@H]3CCCCN3S(=O)(=O)c3ccc(C)cc3)n2)cc1`, the fold activation is 46.9.

The values above are taken from PubChem BioAssay AID602120 (Johns Hopkins Ion Channel Center, 2011).
